US20180110754A1, “CENICRIVIROC FOR THE TREATMENT OF FIBROSIS” (Tobira Therapeutics, Inc., priority 2015, published 2018)
Several values for one entry are separate records, joined by “and”; a condition that tells them apart may be missing. Equal values may be shown once.

Experiments:
[1] = tested on: RANTES-induced Ca2+ mobilization; assay: RANTES-induced Ca2+ mobilization; type: cell-based
[2] = Study 201: safety and tolerability; type: in vivo, human
Procedure: Participants were required to be antiretroviral treatment-experienced, CCR5 antagonist-naive, with HIV-1 RNA levels of at least 5000 copies/mL and CD4+ cell counts of at least 250 cells/mm^3 was performed.

[3] = tested on: STAM mouse model of Non-alcoholic Steatohepatitis (NASH-derived HCC); assay: STAM mouse model of NASH, week 18 (anti-HCC effects); conditions: for Mice that died before sacrifice (survival analysis): weeks 6-18
Procedure: Group 1—Vehicle: Eighteen NASH mice were orally administered vehicle at a volume of 10 mL/kg twice daily (9:00 and 19:00) from 6 weeks of age.

[4] = tested on: STAM mouse model of Non-alcoholic Steatohepatitis; assay: STAM mouse model of NASH, week 9 (anti-NASH/fibrosis effects); type: in vivo; conditions: for Sirius red-positive area (fibrosis area): perivascular space included; for Modified Sirius red-positive area: perivascular space subtracted
Procedure: NASH was induced in male mice by a single injection of 200 μg streptozotocin 2 days after birth (causing impaired glucose control), followed by a high fat diet from 4 weeks of age. […] Animals were sacrificed at 9 weeks of age, and biochemical, gene expression, and histologic evaluations of the liver were conducted.

[5] = known short half-life; cited from earlier work
[6] = tested on: HIV-1; assay: Ex vivo intracellular HIV DNA qPCR in PBMCs of Study 202 participants; set-up: species or system human; conditions: EFV 600 mg, week 24
Procedure: Intracellular DNA qPCR. Total DNA was extracted, quantified, and stored at −80 C.
The Mann-Whitney test was used to analyze in vitro intracellular HIV DNA levels for all three treatment groups. All data were analyzed using Prism 5 software.

[7] = CVC-high 100 mg/kg/day, week 18
[8] = CVC-high 100 mg/kg/day, week 18, listed as Cenicriviroc
[9] = CVC-low 20 mg/kg/day, week 18, listed as Cenicriviroc
[10] = CVC-high 100 mg/kg/day, week 9, listed as Cenicriviroc
[11] = CVC-low 20 mg/kg/day, week 9, listed as Cenicriviroc

## CCCCOCCOc1ccc(-c2ccc3c(c2)/C=C(/C(=O)Nc2ccc([S@@+]([O-])Cc4cncn4CCC)cc2)CCCN3CC(C)C)cc1 [CVC, (S)-8-[4-(2-Butoxyethoxy)phenyl]-1-isobutyl-N-(4-{[(1-propyl-1H-imidazol-5-yl)methyl]sulfinyl}phenyl)-1,2,3,4-tetrahydro-1-benzazocine-5-carboxamide]
[1]
  Effect on RANTES-induced Ca2+ mobilization: blocked
[2]; 25 mg
  Subjects with ALT and/or AST elevations (all Grade 1): 2 subjects
[2]; 50 mg
  Subjects with ALT and/or AST elevations (all Grade 1): 2 subjects
[2]; 100 mg
  Subjects with ALT and/or AST elevations (all Grade 1): 1 subject
[2]; 150 mg
  Subjects with ALT and/or AST elevations (all Grade 1): 1 subject
[2]; 25-150 mg once daily, 10 days
  Tolerability: generally well tolerated
[2]; Study 201, all subjects
  Treatment-emergent AE: diarrhea: 16.7%
  Treatment-emergent AE: fatigue: 11.0%
  Treatment-emergent AE: headache: 14.8%
  Treatment-emergent AE: nausea: 18.5%
[2]; during the study
  Grade 2-4 elevations in ALT or AST: No Grade 2-4 elevations
[3]; CVC treatment groups, week 18
  Effect on NASH-derived HCC: not observed
[3]; [7]
  Body weight: 20.8 ± 2.7 g
  CD31-positive area: 3.68±1.37%
  Liver weight: 1817 ± 446 mg
  Maximum diameter of visible tumor nodules: 5.3±5.1 mm
  Number of visible tumor nodules: 3.6±2.5
[3]; [8]
  Body weight: 20.8 ± 2.7 g
  CD31-positive area: 3.68 ± 1.37%
  Liver weight: 1817 ± 446 mg
  Maximum diameter of visible tumor nodules: 5.3 ± 5.1 mm
  Number of visible tumor nodules: 3.6 ± 2.5
[3]; CVC-high, week 18
  Mice with GS-positive nodules: seven out of seven
  Mice with HCC lesions (HE staining): six out of seven
[3]; CVC-high
  Mice that died before sacrifice (survival analysis): Five out of twelve
[3]; CVC-low 20 mg/kg/day, week 18
  Body weight: 22.9 ± 3.5 g
  CD31-positive area: 1.47±1.10%
  Liver weight: 1837 ± 410 mg
  Maximum diameter of visible tumor nodules: 4.8±5.4 mm
  Number of visible tumor nodules: 1.5±1.9
[3]; [9]
  Body weight: 22.9 ± 3.5 g
  CD31-positive area: 1.47 ± 1.10%
  Liver weight: 1837 ± 410 mg
  Maximum diameter of visible tumor nodules: 4.8 ± 5.4 mm
  Number of visible tumor nodules: 1.5 ± 1.9
[3]; CVC-low, week 18
  Mice with GS-positive nodules: five out of six
  Mice with HCC lesions (HE staining): five out of six
[3]; CVC-low
  Mice that died before sacrifice (survival analysis): Six out of twelve
[4]; 20 and 100 mg/kg/day, week 9
  Effect on body or liver weight, whole blood glucose, or liver triglycerides: no effect
[4]; CVC 20 and 100 mg/kg/day, week 9
  Decrease of collagen type 1 mRNA in whole liver lysates (real-time RT-PCR): 27-37%
[4]; CVC-high 100 mg/kg/day, week 9
  Body weight: 18.7 ± 0.9 g
  F4/80-positive area (inflammation area): 4.96±0.60%
  F4/80 and CD16/32-positive cells: 41.5±8.2%
  F4/80 and CD206-positive cells: 33.1±3.0%
  Liver hydroxyproline: 0.62±0.09 μg/mg total protein
  Liver triglyceride: 51.7±14.1 mg/g liver
  Liver weight: 1307 ± 119 mg
  NAFLD Activity Score (NAS): 3.7±0.8
  Oil red-positive area (fat deposition area): 7.23±3.59%
  Plasma ALT: 51±13 U/L and 52±13 U/L
  Plasma MCP-1: 91 ± 14 pg/mL
  Plasma MIP-1β: 20 ± 4 pg/mL
  TUNEL-positive cells: 39.0±5.3%
  Whole blood glucose: 585 ± 91 mg/dL
[4]; [10]
  Body weight: 18.7 ± 0.9 g
  F4/80-positive area (inflammation area): 4.96 ± 0.60%
  F4/80 and CD16/32-positive cells: 41.5 ± 8.2%
  F4/80 and CD206-positive cells: 33.1 ± 3.0%
  Liver hydroxyproline: 0.62 ± 0.09 μg/mg total protein
  Liver triglyceride: 51.7 ± 14.1 mg/g liver
  Liver weight: 1307 ± 119 mg
  NAFLD Activity Score (NAS): 3.7 ± 0.8
  Oil red-positive area (fat deposition area): 7.23 ± 3.59%
  Plasma ALT: 52 ± 13 U/L
  Plasma MCP-1: 91 ± 14 pg/mL
  Plasma MIP-1β: 20 ± 4 pg/mL
  TUNEL-positive cells: 39.0 ± 5.3%
  Whole blood glucose: 585 ± 91 mg/dL
  Sirius red-positive area (fibrosis area): 0.64 ± 0.19%
  Modified Sirius red-positive area: 0.20 ± 0.06%
[4]; CVC-high, Sirius red, mice 301-306 (raw data), listed as Cenicriviroc
  Modified positive area (%), per mouse: 0.12% and 0.26% and 0.17% and 0.27% and 0.18% and 0.20%
[4]; CVC-high, Sirius red, mice 301-306, photos 1-5 (raw data), listed as Cenicriviroc
  Modified positive area (%), individual photo: 0.17% (2×) and 0.28% (2×) and 0.22% (2×) and 0.08% (3×) and 0.05% and 0.09% (2×) and 0.32% and 0.07% (3×) and 0.16% and 0.20% (2×) and 0.68% and 0.23% (2×) and 0.27% and 0.12% and 0.11% and 0.67% and 0.26% and 0.06% and 0.10% and 0.41%
[4]; CVC-high, week 9, n=6
  Number of animals with Hepatocyte ballooning score 0: 1
  Number of animals with Hepatocyte ballooning score 1: 2
  Number of animals with Hepatocyte ballooning score 2: 3
  Number of animals with Lobular inflammation score 1: 3
  Number of animals with Lobular inflammation score 2: 3
  Number of animals with Steatosis score 1: 5
[4]; CVC-low 20 mg/kg/day, week 9
  Body weight: 19.5 ± 2.0 g
  F4/80-positive area (inflammation area): 4.77±1.02%
  F4/80 and CD16/32-positive cells: 38.7±7.6%
  F4/80 and CD206-positive cells: 34.7±6.3%
  Liver hydroxyproline: 0.63±0.05 μg/mg total protein
  Liver triglyceride: 48.5±16.1 mg/g liver
  Liver weight: 1334 ± 99 mg
  NAFLD Activity Score (NAS): 4.0±0.6
  Oil red-positive area (fat deposition area): 6.51±3.88%
  Plasma ALT: 58±12 U/L
  Plasma MCP-1: 68 ± 16 pg/mL
  Plasma MIP-1β: 18 ± 2 pg/mL
  TUNEL-positive cells: 43.3±2.9%
  Whole blood glucose: 585 ± 91 mg/dL
[4]; [11]
  Body weight: 19.5 ± 2.0 g
  F4/80-positive area (inflammation area): 4.77 ± 1.02%
  F4/80 and CD16/32-positive cells: 38.7 ± 7.6%
  F4/80 and CD206-positive cells: 34.7 ± 6.3%
  Liver hydroxyproline: 0.63 ± 0.05 μg/mg total protein
  Liver triglyceride: 48.5 ± 16.1 mg/g liver
  Liver weight: 1334 ± 99 mg
  NAFLD Activity Score (NAS): 4.0 ± 0.6
  Oil red-positive area (fat deposition area): 6.51 ± 3.88%
  Plasma ALT: 58 ± 12 U/L
  Plasma MCP-1: 68 ± 16 pg/mL
  Plasma MIP-1β: 18 ± 2 pg/mL
  TUNEL-positive cells: 43.3 ± 2.9%
  Whole blood glucose: 585 ± 91 mg/dL
  Sirius red-positive area (fibrosis area): 0.66 ± 0.16%
  Modified Sirius red-positive area: 0.29 ± 0.14%
[4]; CVC-low, week 9, n=6
  Number of animals with Hepatocyte ballooning score 1: 3
  Number of animals with Hepatocyte ballooning score 2: 3
  Number of animals with Lobular inflammation score 1: 3
  Number of animals with Lobular inflammation score 2: 3
  Number of animals with Steatosis score 1: 6
[4]; high dose 100 mg/kg/day, week 9
  Increase in plasma monocyte chemotactic protein-1 levels: 1.5 fold
[4]; low dose 20 mg/kg/day, week 9
  Increase in plasma monocyte chemotactic protein-1 levels: 1.1 fold
[5]
  Half-life in mice: ~2 h

## O=C1Nc2ccc(Cl)cc2[C@@](C#CC2CC2)(C(F)(F)F)O1 [EFV, efavirenz, reference compound]
[6]
  Full-length intracellular HIV DNA, mean fold-change from baseline: 0.825 fold
  Strong-stop intracellular HIV DNA, mean fold-change from baseline: 1.01 fold
